Laboratory results reported in US20140087007A1, “BOWEL CLEANSING PREPARATIONS” (Braintree Laboratories, Inc., priority 2012, published 2014).

System: colon (colonic purgation)
Test: Stool output of normal volunteers after one amount of laxative, bowel movements collected 24 hours
Format: in vivo, human
Conditions: 20 mg, 24 hours collection
Procedure: The sulfate salt solutions such as those described herein were investigated for their efficacy as colon debulking agents because bisacodyl has been associated with reports of abdominal cramping. Four different solutions were prepared with varying amounts of sodium, magnesium, and potassium sulfate salts and each containing a total sulfate amount of 125 mM.
These included bisacodyl (20 mg), a PEG and balanced electrolyte isotonic preparation (NuLYTELY®, (2 L or 4 L) or HalfLytely®+Bisacodyl Bowel Prep Kit, (2 L PEG and electrolytes and 10 mg bisacodyl). Bowel movements and urine were collected for 24 hours. The stool output of the subjects were compared and evaluated for movement of electrolytes between the solution and the subject.
The results measured were mean stool volume output and are shown below in Table 2 using non-sulfate laxatives and in Table 3 using sulfate laxatives.

CC(=O)Oc1ccc(C(c2ccc(OC(C)=O)cc2)c2ccccn2)cc1 [Bisacodyl, bisacodyl]
% Solids (stool): 50.4% | Output (mean stool volume output): 757 g
